Data taken from patent publication US20100113276A1, “USE OF N2-PHENYLAMIDINES AS HERBICIDES” (BAYER CROPSCIENCE AG, priority 2007, published 2010).

Assay: log P by HPLC on reversed-phase column (C18), EEC Directive 79/831 Annex V.A8
Assay type: physicochemical
Settings: C18, 40° C.; for log p H3PO4: 0.1% aqueous phosphoric acid / acetonitrile; for log p HCO2H: aqueous formic acid / acetonitrile
Description: The log P data were determined in accordance with the EEC Directive 79/831 Annex V.A8 by HPLC (High Performance Liquid Chromatography) on a reversed-phase column (C18) using the following methods: […]
Calibration was carried out with the help of unbranched alkan-2-ones (consisting of 3 to 13 or 16 carbon atoms) with known logP values (determination of the logP values via the retention times by means of linear interpolation between two subsequent alkanones).

Compound | log p acidic | log p H3PO4 | log p HCO2H | log p neutral
Cc1cc(-c2cccc(C(C)C)c2)c(C(F)F)cc1N=CN1CCCCC1 [compound 799] | 2.6 |  |  | 
CCN(C)C=Nc1cc(Cl)c(Oc2ccccc2)cc1Cl [compound 801] |  | 1.86 | 1.91 | 4.49
CC(C)N(C)C=Nc1cc(Cl)c(Oc2ccccc2)cc1Cl [compound 802] |  | 2 | 2.08 | 4.84
Clc1cc(Oc2ccccc2)c(Cl)cc1N=CN1CCCCC1 [compound 804] |  | 2.03 | 2.12 | 5.09
CCN(C)C=Nc1cc(Cl)c(Oc2cccc(C(C)(C)C)c2)cc1Cl [compound 806] |  | 2.74 | 2.79 | 5.91
CC(C)N(C)C=Nc1cc(Cl)c(Oc2cccc(C(C)(C)C)c2)cc1Cl [compound 807] |  | 2.7 | 2.82 | 6.13
CC(C)(C)c1cccc(Oc2cc(Cl)c(N=CN3CCCCC3)cc2Cl)c1 [compound 809] |  | 2.81 | 3.04 | 6.41
CC(C)(C)c1cc(Oc2cc(Cl)c(N=CN3CCCCC3)cc2Cl)ccc1Cl [compound 814] |  | 3.45 | 3.62 | 7.08
CCN(C)C=Nc1cc(Cl)c(Oc2nc(C(C)(C)C)ns2)cc1Cl [compound 825] |  | 2.34 | 2.56 | 5.25
CC(C)N(C)C=Nc1cc(Cl)c(Oc2nc(C(C)(C)C)ns2)cc1Cl [compound 826] |  | 2.53 | 2.78 | 5.61
CCN(C)C=Nc1cc(F)c(Oc2cccc(C(C)(C)C)c2)cc1F [compound 830] | 2.4 |  |  | 
CC(C)(C)c1cc(Oc2cc(F)c(N=CN3CCCCC3)cc2F)ccc1Cl [compound 836] | 2.71 |  |  | 5.74
CCN(C)C=Nc1cc(F)c(-c2ccc(C(C)(C)C)cc2)cc1F [compound 846] | 2.79 |  |  | 
CCN(C)C=Nc1cc(F)c(-c2ccc(Cl)c(C(F)(F)F)c2)cc1F [compound 854] | 2.22 |  |  | 
CCN(C)C=Nc1cc(Cl)c(Oc2cccc(C(C)(C)C)c2)cc1I [compound 862] | 2.98 |  |  | 
Cc1cc(N=CN2CCCCC2)c(Cl)cc1Oc1cccc(C(C)(C)C)c1 [compound 873] |  | 3 | 2.79 | 6.42
Cc1cc(N=CN2CCCCC2)c(Cl)cc1Oc1cccc(C(C)C)c1 [compound 878] |  | 2.77 | 2.62 | 6.14
CCN(C)C=Nc1cc(C)c(Oc2cccc(Oc3ccccc3)c2)cc1Cl [compound 880] |  | 2.63 | 2.47 | 5.44
Cc1cc(N=CN2CCCCC2)c(Cl)cc1Oc1cccc(Oc2ccccc2)c1 [compound 882] |  | 2.82 | 2.66 | 6.03
Cc1cc(N=CN2CCCCC2)c(Cl)cc1Oc1ccc(C(C)(C)C)cc1 [compound 886] |  | 3.01 | 2.78 | 6.49
Cc1cc(N=CN2CCCCC2)c(Cl)cc1Oc1ccc(C(C)C)cc1 [compound 891] |  | 2.82 | 2.64 | 6.21

Second part, the compound after the results:

log p acidic | log p H3PO4 | log p HCO2H | log p neutral | Compound
2.75 |  |  |  | CCN(C)C=Nc1cc(OC)c(Oc2ccc(Cl)c(C(C)(C)C)c2)cc1C [compound 733]
2.94 |  |  |  | CCN(C)C=Nc1cc(C(F)(F)F)c(Oc2cccc(C(C)(C)C)c2)cc1C [compound 761]
 | 2.9 | 2.94 | 6.13 | CN(C)C=Nc1cc(Cl)c(Oc2ccc(Cl)c(C(C)(C)C)c2)cc1Cl [compound 810]
 | 3.16 | 3.17 | 6.64 | CCN(C)C=Nc1cc(Cl)c(Oc2ccc(Cl)c(C(C)(C)C)c2)cc1Cl [compound 811]
 | 3.35 | 3.31 | 6.81 | CC(C)N(C)C=Nc1cc(Cl)c(Oc2ccc(Cl)c(C(C)(C)C)c2)cc1Cl [compound 812]
 | 2.35 | 2.45 | 5.15 | CN(C)C=Nc1cc(Cl)c(Oc2ccc(Cl)c(C(F)(F)F)c2)cc1Cl [compound 815]
 | 2.6 | 2.65 | 5.56 | CCN(C)C=Nc1cc(Cl)c(Oc2ccc(Cl)c(C(F)(F)F)c2)cc1Cl [compound 816]
 | 2.74 | 2.8 | 5.88 | CC(C)N(C)C=Nc1cc(Cl)c(Oc2ccc(Cl)c(C(F)(F)F)c2)cc1Cl [compound 817]
 | 2.85 | 3 | 6.12 | FC(F)(F)c1cc(Oc2cc(Cl)c(N=CN3CCCCC3)cc2Cl)ccc1Cl [compound 819]
 | 2.76 | 2.55 | 5.79 | CCN(C)C=Nc1cc(C)c(Oc2cccc(C(C)(C)C)c2)cc1Cl [compound 870]
 | 2.79 | 2.54 | 5.84 | Cc1cc(N=CN(C)C(C)C)c(Cl)cc1Oc1cccc(C(C)(C)C)c1 [compound 871]
 | 2.56 | 2.38 | 5.51 | CCN(C)C=Nc1cc(C)c(Oc2cccc(C(C)C)c2)cc1Cl [compound 875]
 | 2.87 | 2.69 | 5.86 | CCN(C)C=Nc1cc(C)c(Oc2ccc(C(C)(C)C)cc2)cc1Cl [compound 884]
 | 2.61 | 2.45 | 5.58 | CCN(C)C=Nc1cc(C)c(Oc2ccc(C(C)C)cc2)cc1Cl [compound 888]
 | 2.87 | 2.62 | 5.91 | Cc1cc(N=CN(C)C(C)C)c(Cl)cc1Oc1ccc(C(C)C)cc1 [compound 889]
 | 2.35 | 2.3 | 5.08 | Cc1cc(N=CN(C)C)c(Cl)cc1Oc1ccc(Cl)c(C(F)(F)F)c1 [compound 892]
 | 2.51 | 2.44 | 5.49 | CCN(C)C=Nc1cc(C)c(Oc2ccc(Cl)c(C(F)(F)F)c2)cc1Cl [compound 893]
 | 1.73 | 2.55 |  | Cc1cc(N=CN(C)C(C)C)c(Cl)cc1Oc1ccc(Cl)c(C(F)(F)F)c1 [compound 894]
 | 2.88 | 2.78 | 6.12 | CCN(C)C=Nc1cc(C)c(Oc2ccc(Cl)c(C(C)C)c2)cc1Cl [compound 898]
 | 3.07 | 2.92 | 6.45 | Cc1cc(N=CN(C)C(C)C)c(Cl)cc1Oc1ccc(Cl)c(C(C)C)c1 [compound 899]
 | 3.12 | 3 | 6.72 | Cc1cc(N=CN2CCCCC2)c(Cl)cc1Oc1ccc(Cl)c(C(C)C)c1 [compound 901]
 | 1.57 | 2.65 | 6.11 | Cc1cc(N=CN(C)C)c(Cl)cc1Oc1ccc(Cl)c(C(C)(C)C)c1 [compound 902]
